Laboratory results from patent US8629168B2, “Benzoxazoles and oxazolopyridines being useful as janus kinases inhibitors” (priority 2006, dated 2014).

Molecular target: T1, GST-JAK2(808-1132) (Homo sapiens, UniProt O60674)
T1 construct: GST-JAK2(808-1132) is purchased from Invitrogen; purchased Invitrogen (Carlsbad, USA) #4288
Test: EPK JAK/TYK-kinase family profiling assay (Caliper mobility shift), JAK2
Assay type: biochemical
Details: Caliper mobility shift assay of Example 187, 20 μM ATP, read-out: IC50 with Test in present Example
In short: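 Caliper mobility-shift assay with the GST-tagged kinase domain and a fluorescently labeled peptide substrate plus ATP, run 60 min at 30° C and then stopped with EDTA buffer. Turnover was taken as the substrate/product ratio. Compounds were tested at eight final concentrations from 10 to 0.003 μM.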

T1 sequence (O60674 808-1132): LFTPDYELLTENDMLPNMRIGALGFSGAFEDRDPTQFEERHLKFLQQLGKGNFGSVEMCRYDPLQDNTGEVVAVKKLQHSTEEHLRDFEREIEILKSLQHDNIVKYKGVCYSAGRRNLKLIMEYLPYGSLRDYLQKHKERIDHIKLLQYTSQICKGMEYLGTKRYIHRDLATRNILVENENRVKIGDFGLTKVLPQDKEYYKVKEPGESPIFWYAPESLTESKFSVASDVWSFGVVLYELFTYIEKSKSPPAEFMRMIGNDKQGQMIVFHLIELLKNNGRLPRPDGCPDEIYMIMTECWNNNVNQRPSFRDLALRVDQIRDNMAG

Row | SMILES | IC50 [nM]
1 | CCN1CCN(c2ccc(Nc3nc4cccc(-c5ccc(S(C)(=O)=O)cc5)c4o3)cc2C)CC1 [Example 92, [4-(4-Ethyl-piperazin-1-yl)-3-methyl-phenyl]-[7-(4-methanesulfonyl-phenyl)-benzooxazol-2-yl]-amine] | 10.1
2 | Cc1cc(Nc2nc3cccc(-c4cc(F)c(CN5CCOCC5)c(F)c4)c3o2)ccc1C(=O)N(C)CCN(C)C [Example 158, 4-[7-(3,5-Difluoro-4-morpholin-4-ylmethyl-phenyl)-benzooxazol-2-ylamino]-N-(2-dimethylamino-ethyl)-2,N-dimethyl-benzamide] | 21
3 | Cc1cc(Nc2nc3cccc(-c4ccc(CN5CCOCC5)c(C(F)(F)F)c4)c3o2)ccc1C(=O)N(C)C [Example 86, 2,N,N-Trimethyl-4-[7-(4-morpholin-4-ylmethyl-3-trifluoromethyl-phenyl)-benzooxazol-2-ylamino]-benzamide] | 79
4 | Cc1cc(Nc2nc3cccc(-c4ccc(C(=O)N5CCOCC5)c(C)c4)c3o2)ccc1CN1CCOCC1 [Example 166, {2-Methyl-4-[2-(3-methyl-4-morpholin-4-ylmethyl-phenylamino)-benzooxazol-7-yl]-phenyl}-morpholin-4-yl-methanone] | 11.1
5 | Cc1cc(Nc2nc3cccc(-c4ccc(CC(=O)N5CCOCC5)cc4)c3o2)ccc1C(=O)N(C)C [Example 70, 2,N,N-Trimethyl-4-{7-[4-(2-morpholin-4-yl-2-oxo-ethyl)-phenyl]-benzooxazol-2-ylamino}-benzamide] | 6.2
6 | CCN1CCN(c2ccc(Nc3nc4cccc(-c5ccc(S(N)(=O)=O)cc5)c4o3)cc2C)CC1 [Example 112, 4-{2-[4-(4-Ethyl-piperazin-1-yl)-3-methyl-phenylamino]-benzooxazol-7-yl}-benzenesulfonamide] | 17.5
7 | Cc1cc(Nc2nc3cccc(-c4cc(F)c(CN5CCOCC5)c(F)c4)c3o2)ccc1N1CCOCC1 [Example 163, [7-(3,5-Difluoro-4-morpholin-4-ylmethyl-phenyl)-benzooxazol-2-yl]-(3-methyl-4-morpholin-4-yl-phenyl)-amine] | 11.6
8 | Cc1cc(Nc2nc3cccc(-c4cc(F)c(CN5CCOCC5)c(F)c4)c3o2)ccc1C(=O)NCCN(C)C [Example 122, 4-[7-(3,5-Difluoro-4-morpholin-4-ylmethyl-phenyl)-benzooxazol-2-ylamino]-N-(2-dimethylamino-ethyl)-2-methyl-benzamide] | 11.1
9 | Cc1cc(Nc2nc3cccc(-c4cc(F)c(CN5CCS(=O)(=O)CC5)c(F)c4)c3o2)ccc1N1CCN(C(C)C)CC1 [Example 101, {7-[4-(1,1-Dioxo-1lambda*6*-thiomorpholin-4-ylmethyl)-3,5-difluoro-phenyl]-benzooxazol-2-yl}-[4-(4-isopropyl-piperazin-1-yl)-3-methyl-phenyl]-amine] | 3.6
10 | Cc1cc(Nc2nc3cccc(-c4cc(F)c(CN5CCOCC5)c(F)c4)c3o2)cn(C)c1=O [Example 161, 5-[7-(3,5-Difluoro-4-morpholin-4-ylmethyl-phenyl)-benzooxazol-2-ylamino]-1,3-dimethyl-1H-pyridin-2-one] | 80
11 | Cc1cc(-c2cccc3nc(Nc4ccc(N5CCN(CCN(C)C)CC5)c(C)c4)oc23)ccc1C(=O)N1CCOCC1 [Example 102, [4-(2-{4-[4-(2-Dimethylamino-ethyl)-piperazin-1-yl]-3-methyl-phenylamino}-benzooxazol-7-yl)-2-methyl-phenyl]-morpholin-4-yl-methanone] | 5.65
12 | CN1CCN(c2ccc(Nc3nc4cccc(-c5ccc(CN6CCS(=O)(=O)CC6)cc5)c4o3)cc2)CC1 [Example 89, {7-[4-(1,1-Dioxo-1lambda*6*-thiomorpholin-4-ylmethyl)-phenyl]-benzooxazol-2-yl}-[4-(4-methyl-piperazin-1-yl)-phenyl]-amine] | 60
13 | Cc1cc(Nc2nc3cccc(-c4cc(F)c(CN5CCS(=O)(=O)CC5)c(F)c4)c3o2)ccc1N1CCN(C2CC2)CC1 [Example 154, [4-(4-Cyclopropyl-piperazin-1-yl)-3-methyl-phenyl]-{7-[4-(1,1-dioxo-1lambda*6*-thiomorpholin-4-ylmethyl)-3,5-difluoro-phenyl]-benzooxazol-2-yl}-amine] | 3.3
14 | O=C1CCCN1c1ccc(Nc2nc3cccc(-c4cc(F)c(CN5CCOCC5)c(F)c4)c3o2)cc1 [Example 126, 1-{4-[7-(3,5-Difluoro-4-morpholin-4-ylmethyl-phenyl)-benzooxazol-2-ylamino]-phenyl}-pyrrolidin-2-one] | 165
15 | O=C1CCCN1c1ccc(Nc2nc3cccc(-c4cc(F)c(CN5CCS(=O)(=O)CC5)c(F)c4)c3o2)cc1 [Example 125, 1-(4-{7-[4-(1,1-Dioxo-1lambda*6*-thiomorpholin-4-ylmethyl)-3,5-difluoro-phenyl]-benzooxazol-2-ylamino}-phenyl)-pyrrolidin-2-one] | 70.5
16 | COCCN1CCN(c2ccc(Nc3nc4cccc(-c5ccc(C(=O)N6CCOCC6)c(C)c5)c4o3)cc2C)CC1 [Example 66, [4-(2-{4-[4-(2-Methoxy-ethyl)-piperazin-1-yl]-3-methyl-phenylamino}-benzooxazol-7-yl)-2-methyl-phenyl]-morpholin-4-yl-methanone] | 6.45
17 | COCCN1CCN(c2ccc(Nc3nc4cccc(-c5cc(F)c(CN6CCS(=O)(=O)CC6)c(F)c5)c4o3)cc2C)CC1 [Example 108, {7-[4-(1,1-Dioxo-1lambda*6*-thiomorpholin-4-ylmethyl)-3,5-difluoro-phenyl]-benzooxazol-2-yl}-{4-[4-(2-methoxy-ethyl)-piperazin-1-yl]-3-methyl-phenyl}-amine] | 10.3
18 | COc1ccc(Nc2nc3cccc(-c4ccc(C(=O)N5CCOCC5)c(C)c4)c3o2)cc1N1CCN(C)CC1 [Example 127, (4-{2-[4-Methoxy-3-(4-methyl-piperazin-1-yl)-phenylamino]-benzooxazol-7-yl}-2-methyl-phenyl)-morpholin-4-yl-methanone] | 30
19 | CCN1CCN(c2ccc(Nc3nc4cccc(-c5ccc(C(=O)N6CCS(=O)(=O)CC6)cc5)c4o3)cc2C)CC1 [Example 116, (1,1-Dioxo-1lambda*6*-thiomorpholin-4-yl)-(4-{2-[4-(4-ethyl-piperazin-1-yl)-3-methyl-phenylamino]-benzooxazol-7-yl}-phenyl)-methanone] | 15
20 | CN1CCN(c2ccc(Nc3nc4cccc(-c5cc(F)c(CN6CCS(=O)(=O)CC6)c(F)c5)c4o3)cc2)CC1 [Example 95, {7-[4-(1,1-Dioxo-1lambda*6*-thiomorpholin-4-ylmethyl)-3,5-difluoro-phenyl]-benzooxazol-2-yl}-[4-(4-methyl-piperazin-1-yl)-phenyl]-amine] | 6.85
21 | Cc1cc(Nc2nc3cccc(-c4ccc(C(=O)N5CCOCC5)c(F)c4)c3o2)ccc1N1CCN(C2CC2)CC1 [Example 156, (4-{2-[4-(4-Cyclopropyl-piperazin-1-yl)-3-methyl-phenylamino]-benzooxazol-7-yl}-2-fluoro-phenyl)-morpholin-4-yl-methanone] | 20.5
22 | Cc1cc(Nc2nc3cccc(-c4cc(F)c(CN5CCOCC5)c(F)c4)c3o2)ccc1C(=O)N(C)C [Example 68, 4-[7-(3,5-Difluoro-4-morpholin-4-ylmethyl-phenyl)-benzooxazol-2-ylamino]-2,N,N-trimethyl-benzamide] | 19
23 | CCN(CC)C(=O)c1ccc(Nc2nc3cccc(-c4cc(F)c(CN5CCOCC5)c(F)c4)c3o2)cc1C [Example 103, 4-[7-(3,5-Difluoro-4-morpholin-4-ylmethyl-phenyl)-benzooxazol-2-ylamino]-N,N-diethyl-2-methyl-benzamide] | 14
24 | Cc1cc(-c2cccc3nc(Nc4ccc(N5CCN(C)CC5)cc4)oc23)ccc1C(=O)N1CCOCC1 [Example 82, (2-Methyl-4-{2-[4-(4-methyl-piperazin-1-yl)-phenylamino]-benzooxazol-7-yl}-phenyl)-morpholin-4-yl-methanone] | 4.8
25 | Cc1cc(Nc2nc3cccc(-c4cc(F)c(CN5CCS(=O)(=O)CC5)c(F)c4)c3o2)ccc1C(=O)N1CCCC1 [Example 96, (4-{7-[4-(1,1-Dioxo-1lambda*6*-thiomorpholin-4-ylmethyl)-3,5-difluoro-phenyl]-benzooxazol-2-ylamino}-2-methyl-phenyl)-pyrrolidin-1-yl-methanone] | 4.35
26 | Cc1cc(Nc2nc3cccc(-c4ccc(C(=O)N5CCOCC5)cc4)c3o2)ccc1C(=O)N(C)C [Example 69, 2,N,N-Trimethyl-4-{7-[4-(morpholine-4-carbonyl)-phenyl]-benzooxazol-2-ylamino}-benzamide] | 7.9
